Tested on: CD36
Experiment: Immunoblot of CD36 in high glucose induced J774 macrophage cells
Assay type: cell-based, mouse
Conditions: glucose 600 mg/dL for 5 days, LI054A01 at 1 μg/ml
Experimental: In macrophages, CD36 is a scavenger receptor that mediates uptake of oxidized low-density lipoprotein (OxLDL) and subsequent foam-cell development. Therefore, increased level of CD36 in macrophages has been considered as a predictive marker for development of atherosclerosis. Inhibition of CD36 protein expression in high glucose induced J774 macrophage cells in presence or absence of LI/DD-II/054A/01 and LI054A01 was evaluated using immunoblot assay. Briefly, equal amount of cell lysates protein obtained after treating the cells with LI/DD-II/054A/01 or LI054A01 was resolved in 7.5% SDS-PAGE; thereafter, the proteins were transferred to nitrocellulose membrane. […] Finally, the specific immuno-reactive bands were developed with West-pico chemiluminescent substrate (Pierce Biotechnology, IL, USA), and the immunoblot images were recorded in a Kodak Image Station (Kodak, USA). Band intensities were calculated densitometrically and normalized with expression of actin in respective samples. […]
Experimental protocol: This was evaluated in glucose induced J774, mouse macrophage cells. […] Protein concentration was measured by Bradford method.
Inhibition of CD36 protein expression in high glucose induced J774 macrophage cells in presence or absence of LI/DD-II/054A/01 and LI054A01 was evaluated in immunoblot assay. […]

In the case of C=C1C(=O)O[C@H]2C3=C(C)CCC[C@]3(C)CC[C@@]12O [LI054A01, 7-α-hydroxy-4,11(13)-eudesmadien-12,6-olide], the “inhibition of CD36 compared to that shown by LI/DD-II/054A/01” value is reported as 10 times.

— patent US9241964B2, “Composition from Sphaeranthus indicus and Garcinia mangostana for the control of metabolic syndrome” (LAILA NUTRACEUTICALS, priority 2009, dated 2016)
